Laboratory results published in US20100204460A1, “NATURAL BRASSINOSTEROIDS FOR USE FOR TREATING HYPERPROLIFERATION, TREATING PROLIFERATIVE DISEASES AND REDUCING ADVERSE EFFECTS OF STEROID DYSFUNCTION IN MAMMALS, PHARMACEUTICAL COMPOSITION AND ITS USE” (priority 2007, published 2010).

What was measured:
Type in all cases: cell-based
[1] = tested on: MDA-MB-468 (estrogen receptor-α-negative) breast cancer cell line; test: MTT cytotoxicity test, MDA-MB-468; settings: 24 h, mean ± SD, read-out: IC50 determined by MTT cytotoxicity test
Protocol: (§1) 3-(4,5-Dimethylthiazol-2-yl)-2,5-diphenyltetrazolium bromide (MTT) was from Serva Electrophoresis (Heidelberg, Germany). Monoclonal mouse anti-bromodeoxyuridine (BrdU) intibody was obtained from DakoCytomation (Glostrup, Denmark). Calcein AM was obtained from PAA Laboratories GmbH (Pasching, Austria). […] All other cells were cultured in DMEM medium (Sigma, MO, USA). All used media were supplemented with 10% heat-inactivated fetal bovine serum, 2 mmol/L L-glutamine, 1% penicillin/streptomycin. The cell lines were maintained under standard cell culture conditions at 37° C. and 5% CO2 in a humid environment. Cells were subcultured twice or three times a week using the standard trypsinization procedure (Sigma, USA).
(§2) Cell viability in this case was assessed by 3-(4,5-dimethylthiozol-2-yl)-2,5-diphenyltetrazolium bromide (MTT) to determine IC50 concentrations of studied agents as described previously. […] The cells (70% to 80% confluent) were treated with brassinosteroids for 6, 12 and 24 h in cell culture medium. Cells that were used as controls were incubated with the maximum used amount of steroid diluent DMSO only. […] The absorbance was read using an ELISA reader Labsystem Multiscan RC at 570 nm. The viability of treated cells was related to the viability of control cells that represented 100% viability. […]

[2] = tested on: DU-145 (androgen-insensitive) prostate cancer cell line; test: MTT cytotoxicity test, DU-145; settings: 24 h, mean ± SD, read-out: IC50 determined by MTT cytotoxicity test
Protocol: as §1, §2

[3] = tested on: multiple myeloma cell line RPMI 8226; test: Calcein AM cytotoxicity assay, RPMI 8226; settings: RPMI 8226; exposure 72 h (b71 says 96 h); mean ± SD; read-out: IC50 assessed by Calcein AM assay of surviving cells
LNCaP cells = test: BrdU incorporation assay, LNCaP
Protocol: To analyze if the inhibition in cell viability was due to decreased cell proliferation, we measured DNA synthesis in the presence of BRs. The effect of brassinosteroids 9 or 6 on cell proliferation and DNA replication of the cancer cells was measured by BrdU incorporation assay. This immunostaining was based on nuclear incorporation of bromodeoxyuridine (BrdU) into DNA in place of thymidine during the S-phase of cell cycle detected by anti-specific-BrdU antibody following membrane permeabilization as described previously (Gratzner, Science. 1982, 218, 474-475). […] The BrdU reagent (0.1 mM; Sigma, MO, USA) was added in culture medium with cells for 4 h in a CO2 incubator at 37° C. After incubation the cells were washed three times with PBS and fixed with cold acetone-methanol (1:1, v/v) for 10 min. The cells were denaturated by HCl (1:5; Lachema, Czech Republic) and incubated with anti-specific-BrdU antibody (diluted 1:100 in PBS; clone Bu20a, DakoCytomation, Denmark) for 60 min in the dark. The cells were then washed three times in PBS (10 mM, pH 7.4) and incubated with goat anti-mouse fluorescein isothiocyanate (FITC)-labeled secondary antibody (Sigma, MO, USA) for 60 min in the dark. The cells were then washed three times in PBS and incubated with DAPI (50 μg/mL; Sigma, MO, USA) for 10 min in the dark. The coverslips with cells were washed in deionized water and mounted on glass slides, using the hydrophilic medium Mowiol (Calbiochem, Calif., USA) in glycerol-PBS (1:3, v/v) for fluorescence. Cells were visualized using microscopy and those incorporating BrdU (S phase cells) were counted in at least 25 fields and compared with the total number of all cells.

[4] = tested on: normal human fibroblasts (BJ); test: Calcein AM cytotoxicity assay, BJ; settings: BJ normal fibroblasts; exposure 72 h (b71 says 96 h); mean ± SD; read-out: IC50 assessed by Calcein AM assay of surviving cells
[5] = tested on: malignant human melanoma cell line G361; test: Calcein AM cytotoxicity assay, G 361; settings: G 361; exposure 72 h (b71 says 96 h); mean ± SD; read-out: IC50 assessed by Calcein AM assay of surviving cells
[6] = treated at IC50 for 6 h, control 44 ± 6.0
[7] = treated at IC50 for 12 h, control 52 ± 7.6
[8] = treated at IC50 for 24 h, control 59 ± 8.0

| SMILES | IC50 [1] | IC50 [2] | IC50 [3] | percentage of proliferating BrdU positive cells (LNCaP cells; [6]) | percentage of proliferating BrdU positive cells (LNCaP cells; [7]) | percentage of proliferating BrdU positive cells (LNCaP cells; [8]) | IC50 [4] | IC50 [5] |
| --- | --- | --- | --- | --- | --- | --- | --- | --- |
| CC(C)[C@@H](C)[C@@H](O)[C@H](O)[C@@H](C)[C@H]1CC[C@H]2[C@@H]3COC(=O)[C@H]4C[C@H](O)[C@H](O)C[C@]4(C)[C@H]3CC[C@]12C [Brassinosteroid 6, 24-Epibrassinolide] | 68 ± 2.5 µM | 65 ± 0.9 µM | > 50 µM | 36 ± 5.5% | 31 ± 2.0 % | 29 ± 4.7 % | > 50 µM | > 50 µM |
| CC[C@@H](C(C)C)[C@@H](O)[C@H](O)[C@@H](C)[C@H]1CC[C@H]2[C@@H]3CC(=O)[C@H]4C[C@H](O)[C@H](O)C[C@]4(C)[C@H]3CC[C@]12C [Brassinosteroid 9, 28-Homocastasterone] | 65 ± 2.8 µM | 45 ± 2.8 µM | 26 ± 1.4 µM | 25 ± 3.0 % | 28 ± 4.6 % | 27 ± 2.1 % | > 50 µM | > 50 µM |
